Literature values in patent publication US8021659B2, “Coenzyme Q10, lactoferrin and angiogenin compositions and uses thereof” (Naidu LP, priority 2006, dated 2011).
Read-outs that look alike come from different tables or passages of the source.

What was measured:
[1] = human plasma

Row | elimination half-life (excretion primarily through the biliary tract) | time to peak levels of CoQ-10 in the plasma (following oral administration) [h] | orally administered CoQ-10 excreted in the feces (oral administration) | serum concentrations (regular doses of 30-60 mg/day) [ng/mL] | serum concentrations (therapeutic doses of 100-200 mg/day) [ng/mL] | Compound | half-life (turnover rate) [1] [min]
1 | approximately 34 hours | 5 to 10 | more than 60% | 700 to 1000 | 2000 to 3000 | COC1=C(OC)C(=O)C(C/C=C(\C)CC/C=C(\C)CC/C=C(\C)CC/C=C(\C)CC/C=C(\C)CC/C=C(\C)CC/C=C(\C)CC/C=C(\C)CC/C=C(\C)CCC=C(C)C)=C(C)C1=O [CoQ-10, 2,3-dimethoxy-5-methyl-6-decaprenyl-1,4-benzoquinone] | –
2 | – | – | – | – | – | AGN: 14-kDa, basic heparin-binding protein and a member of the pancreatic ribonuclease superfamily | < 5
